# Data taken from US20220380347A1, “INHIBITORS OF CYSTEINE PROTEASES AND METHODS OF USE THEREOF” (Pardes Biosciences, Inc., priority 2020, published 2022).
# pEC50, pIC50: −log10 of the molar value. Like-named read-outs stand apart in the source and are kept apart here.
# Experiments:
# [1] = biological target: 229E Mpro (Human coronavirus 229E, UniProt P0C6X1); experiment: 229E Mpro enzymatic assay (standard methods, SARS-CoV2 Mpro assay given as exemplary); type: biochemical, human coronavirus (HCov) 229E
# Summary of the method: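 IC50 for 229E Mpro by standard methods; exemplary SARS-CoV-2 protocol used C-His6-tagged Mpro from E. coli, 25 nM enzyme, 25 μM substrate (Km 13.5 μM), in Tris-HCl pH 7.3, NaCl, EDTA, TCEP, 0.1% BSA. Inhibition normalised to no-compound and full-effect controls; four-parameter fit.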
# [2] = biological target: COVID-19 (nCoV-2019, SARS-CoV2) Mpro (Severe acute respiratory syndrome coronavirus 2, UniProt P0DTD1); experiment: COVID-19 (nCoV-2019, SARS-CoV2) Mpro enzymatic assay; type: biochemical; conditions: 25 nM Mpro, 25 μM substrate; read-out: COVID-19 Mpro IC50
# [3] = tested on: HCov OC43; experiment: HCoV OC43 cytopathic effect (CPE) assay, CellTiter Glo; type: cell-based, human coronavirus (HCov) OC43
# [4] = Betacoronavirus 1, OC43, read-out: OC43 IC50 (uM) MEDIAN, median
# [5] = read-out: OC43 IC50 (uM) MEDIAN, median
# 229E Mpro, sequence (P0C6X1 2966-3267): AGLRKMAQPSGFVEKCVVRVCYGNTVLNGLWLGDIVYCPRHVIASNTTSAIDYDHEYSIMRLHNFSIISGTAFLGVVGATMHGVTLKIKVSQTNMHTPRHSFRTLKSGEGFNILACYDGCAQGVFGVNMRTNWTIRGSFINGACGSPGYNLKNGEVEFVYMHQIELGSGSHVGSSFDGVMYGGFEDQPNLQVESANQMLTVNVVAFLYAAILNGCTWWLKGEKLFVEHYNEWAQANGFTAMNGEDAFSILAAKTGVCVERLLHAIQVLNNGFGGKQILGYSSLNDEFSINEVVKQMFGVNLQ
Compound,pEC50 ([1]; 229E Mpro EC50),pIC50 [2],"IC50 [3, 4] [µM]",pEC50 ([1]; read-out: 229E Mpro EC50),"IC50 ([3]; read-out: OC43 IC50 (uM) MEDIAN, median, listed as 876 Isomer 2) [µM]","IC50 [3, 5] [µM]","IC50 ([3]; read-out: OC43 IC50 (uM) MEDIAN, median, listed as 374 Isomer 1) [µM]","IC50 ([3]; read-out: OC43 IC50 (uM) MEDIAN, median, listed as 407 Isomer 1) [µM]"
"O=C(NC1CCC(F)(F)CC1)C(c1cncc(F)c1)N(C(=O)c1cnc[nH]1)c1ccc(S(F)(F)(F)(F)F)cc1 (single isomer, unassigned) [1337 Isomer 1, N-[2-[(4,4-difluorocyclohexyl)amino]-1-(5-fluoro-3-pyridyl)-2-oxo-ethyl]-N-[4-(pentafluoro-λ6-sulfanyl)phenyl]-1H-imidazole-5-carboxamide]",5.00 to 5.70,4.52 to 5.00,> 30,–,–,–,–,–
"N#C[C@H]1C[C@H](C(=O)N(c2ccc(S(F)(F)(F)(F)F)cc2)C(C(=O)NC2CCC(F)(F)CC2)c2cncc(F)c2)N(C#N)C1 (single isomer, unassigned) [1100 Isomer 1]",> 5.70,> 5.70,< 2,–,–,–,–,–
"CC1(C)CCNc2cc(N(C(=O)[C@H]3C[C@@](C)(O)CN3C#N)C(C(=O)NC3CCC(F)(F)CC3)c3cncc(F)c3)ccc21 (single isomer, unassigned) [Compound 1127 Isomer 2]",–,> 5.70,< 2,> 5.70,–,–,–,–
"CO[C@@H]1C[C@H](C(=O)N(c2ccc(S(F)(F)(F)(F)F)cc2F)C(C(=O)NC2CCC(F)(F)CC2)c2cccnc2)N(C#N)C1 (single isomer, unassigned) [1288 Isomer 1]",> 5.70,> 5.70,< 2,–,–,–,–,–
"CC(C)(C)c1ccc(N(C(=O)[C@H]2CC(F)(F)CN2C#N)C(C(=O)NC2CCCCC2)c2cccnc2)cc1 (single isomer, unassigned) [Compound 876 Isomer 2]",–,4.52 to 5.00,–,> 5.70,> 30,–,–,–
"N#CN1C[C@H](O)C[C@@H]1C(=O)N(c1ccc(C2(C(F)(F)F)CC2)cc1)C(C(=O)NC1CCCCC1)c1cccnc1 (single isomer, unassigned) [735 Isomer 2]",–,5.00 to 5.70,–,> 5.70,–,2 to 10,–,–
"CO[C@@H]1C[C@H](C(=O)N(c2ccc(S(F)(F)(F)(F)F)cc2)C(C)(C(=O)NC2CCC(F)(F)CC2)c2cccnc2)N(C#N)C1 (single isomer, unassigned) [1259 Isomer 1]",> 5.70,5.00 to 5.70,2 to 10,–,–,–,–,–
"CC1(C)CN(C#N)[C@@H](C(=O)N(c2ccc(C(C)(C)C)cc2)C(C(=O)NC2CCOCC2)c2cccnc2)CO1 (single isomer, unassigned) [1141 Isomer 1]",4.52 to 5.00,5.00 to 5.70,–,–,–,2 to 10,–,–
"CO[C@@H]1C[C@H](C(=O)N(c2ccc(S(F)(F)(F)(F)F)cc2)C(C(=O)NC(C)C2CCCCN2C(=O)OC(C)(C)C)c2cccnc2)N(C#N)C1 (single isomer, unassigned) [1303 Isomer 3.2]",4.52 to 5.00,< 4.52,–,–,–,> 30,–,–
"CO[C@@H]1C[C@H](C(=O)N(c2ccc(S(F)(F)(F)(F)F)cc2)C(C(=O)NC2CCC(F)(F)CC2)c2cnccc2C)N(C#N)C1 (single isomer, unassigned) [1199 Isomer 2]",–,> 5.70,–,> 5.70,–,< 2,–,–
"CC(C)(C)c1ccc(N(C(=O)[C@H]2C[C@@H](O)CN2C#N)C(C(=O)NCc2cccnc2)c2cccnc2)cc1 (single isomer, unassigned) [643 Isomer 1]",> 5.70,> 5.70,< 2,–,–,–,–,–
"CO[C@@H]1C[C@H](C(=O)N(c2ccc(S(F)(F)(F)(F)F)cc2)C(C(=O)NC(C)C2CCCCN2C(=O)OC(C)(C)C)c2cccnc2)N(C#N)C1 (single isomer, unassigned) [1303 Isomer 2.1]",5.00 to 5.70,5.00 to 5.70,–,–,–,10 to 30,–,–
"C[C@H](NC(=O)C(c1cncc(F)c1)N(C(=O)[C@H]1C[C@@](C)(O)CN1C#N)c1ccc(S(F)(F)(F)(F)F)cc1)c1ccccc1 (single isomer, unassigned) [1328 Isomer 2]",–,5.00 to 5.70,–,> 5.70,–,2 to 10,–,–
"C[C@@]1(O)C[C@H](C(=O)N(c2ccc(S(F)(F)(F)(F)F)cc2)C(C(=O)NC2CCOCC2)c2cnccn2)N(C#N)C1 (stereo partly drawn) [Compound 1322, (2R,4R)-1-cyano-4-hydroxy-4-methyl-N-[2-oxo-1-pyrazin-2-yl-2-(tetrahydropyran-4-ylamino)ethyl]-N-[4-(pentafluoro-λ6-sulfanyl)phenyl]pyrrolidine-2-carboxamide]",> 5.70,> 5.70,< 2,–,–,–,–,–
"CC(C)(C)c1ccc(N(C(=O)[C@H]2Cc3ccccc3CN2C#N)C(C(=O)NC2CCCCC2)c2cccnc2)cc1 (single isomer, unassigned) [Compound 374 Isomer 1]",< 4.52,< 4.52,–,–,–,–,> 30,–
"CC(C(=O)NC1CCC(F)(F)CC1)(c1cccnc1)N(C(=O)[C@H]1[C@@H]2C[C@@H]2CN1C#N)c1ccc(S(F)(F)(F)(F)F)cc1 (single isomer, unassigned) [Compound 1251 Isomer 2]",> 5.70,> 5.70,–,–,–,< 2,–,–
"COc1ccc(NC(=O)C(c2cccnc2)N(C(=O)[C@H]2CCCN2C#N)c2ccc(C(C)(C)C)cc2)cn1 (single isomer, unassigned) [Compound 407 Isomer 1]",> 5.70,> 5.70,–,–,–,–,–,2 to 10
"N#CN1C[C@H](O)C[C@@H]1C(=O)N(c1ccc(C2(C(F)(F)F)CC2)cc1)C(C(=O)NC1CCC(F)(F)CC1)c1cncc(F)c1 (single isomer, unassigned) [Compound 815a Isomer 2]",–,> 5.70,–,> 5.70,–,< 2,–,–
"O=C(NC1CCC(F)(F)CC1)C(c1cncc(F)c1)N(C(=O)c1cnc[nH]1)c1ccc(C2CC2)cc1F (single isomer, unassigned) [1336 Isomer 1, N-(4-cyclopropyl-2-fluorophenyl)-N-(2-((4,4-difluorocyclohexyl)amino)-1-(5-fluoropyridin-3-yl)-2-oxoethyl)-1H-imidazole-5-carboxamide]",5.00 to 5.70,4.52 to 5.00,> 30,–,–,–,–,–
"Cc1nc[nH]c1C(C(=O)NC1CCC(F)(F)CC1)N(C(=O)[C@H]1C[C@@](C)(O)CN1C#N)c1ccc(S(F)(F)(F)(F)F)cc1 (single isomer, unassigned) [1324 Isomer 1]",4.52 to 5.00,< 4.52,–,–,–,> 30,–,–
"CO[C@@H]1C[C@H](C(=O)N(c2ccc(S(F)(F)(F)(F)F)cc2)C(C(=O)NCCN2CCN(C(=O)OC(C)(C)C)CC2)c2cccnc2)N(C#N)C1 (stereo partly drawn) [Compound 1267, tert-butyl4-[2-[[2-[N-[(2R,4R)-1-cyano-4-methoxy-pyrrolidine-2-carbonyl]-4-(pentafluoro-λ^6-sulfanyl)anilino]-2-(3-pyridyl)acetyl]amino]ethyl]piperazine-1-carboxylate]",> 5.70,5.00 to 5.70,< 2,–,–,–,–,–
"CC(C)(C)c1ccc(N(C(=O)[C@H]2C[C@@H](Oc3ccccc3)CN2C#N)C(C(=O)NC2CCCCC2)c2cccnc2)cc1 (single isomer, unassigned) [307 Isomer 2]",5.00 to 5.70,< 4.52,–,–,–,2 to 10,–,–
"N#CN1CCOC[C@@H]1C(=O)N(c1ccc(C2CC2)cc1F)C(C(=O)NC1CCC(F)(F)CC1)c1cnccc1C(F)(F)F (single isomer, unassigned) [Compound 1313 Isomer 2]",–,5.00 to 5.70,–,> 5.70,–,2 to 10,–,–
"N#CN1C[C@@H](OC(F)F)C[C@@H]1C(=O)N(c1ccc(S(F)(F)(F)(F)F)cc1)C(C(=O)NC1CCC(F)(F)CC1)c1cncc(F)c1 (single isomer, unassigned) [Compound 823a Isomer 2]",–,> 5.70,–,> 5.70,–,2 to 10,–,–
